Results on 2 compounds are retold here after patent EP2401611B1, “IMPROVED METHODS FOR IDENTIFICATION” (Cambridge Enterprise Limited, priority 2009, dated 2010).

The structures appear in SMILES notation. Like-named read-outs stand apart in the source and are kept apart here.

One assay concerns Jurkat-D3B cells. Nature of the assay: SDF-1α induced migration of Jurkat-D3B cells expressing sstr2. The class given is cell-based, human. How it is done:
Methods: Total mRNA was prepared from Panc-1 cells (a human pancreas cell line which is well known to express high levels of sstr2) using the RNAqueous 4PCR kit (Ambion, Cat code #1914) in accordance with the manufacturer's instructions. The mRNA was then reverse transcribed (using the RETROscript kit; Ambio) to yield a cDNA preparation. A full length cDNA of the sstr2 gene was then obtained by PCR (using a Peltier PTC-200 thermal cycler using the following cycle times and conditions: 94°C for 2 min, followed by 30 cycles of 94°C, for 30 sec, 55°C for 30sec, 72°C for 1 min and finally 72°C for 10 min), and isolated by preparative gel electrophoresis. The sequence of the sstr2 cDNA was confirmed by sequencing. The sstr2 cDNA was treated with EcoRI and Xhol to generate sticky ends, which allowed directional cloning into the polylinker of the plasmid pcDNA3.1+ (Invitrogen) followed by ligation (10µl ligation reactions were run with 400 T4 DNA ligase (New England Biolabs) and the maximal amounts of DNA with an insert:plasmid ratio of 3:1 in ligase buffer incubated overnight at 13°C). The resulting vector (see Fig. 13) was used to transform XL-10 Ultracompetent cells (Stratagene) using standard techniques. Plasmid DNA was prepared using a MiniPrep kit (Wizard Plus SV Minipreps DNA purification System; Promega) in accordance with the manufacturer's instructions for transfection into Jurkat T cells.
Jurkat T cells were grown in RPMI + 10% foetal calf serum (FCS), and subcultured by 1:3 dilution in fresh medium every 4 days. Jurkat T cells in logarithmic growth phase 48 hours after subculture were washed by centrifugation and resuspended in serum-free RPMI medium at 7.5 x 10^5 cells per ml. A mixture of DNA and transfection reagent (2µg of DNA; 3µl Fugene 6 transfection reagent; Roche) was then added and the cells were incubated at 37°C for 48 hours. The cells were then washed three times by centrifugation in RPMI + 10% FCS, before being suspended in fresh medium at 1 x 10^5 cells per ml. 68 ml of the resulting cell suspension was then plated out in a total of 226 wells in 96-well plates (Corning). After 48hrs, G418 (0.9mg/ml Active G418) was added to the medium to select for transfectants, and the cells were expanded by repeated subculture, keeping the populations from individual wells (which were considered clonal or oligoclonal expansions) separate. […]
A number of individual cell lines were obtained in this way, which expressed significant levels of sstr2 on the cell surface, detected by flow cytometry using the human-sstr2 antibody (Sigma, S0694; see Example 3 for details of the flow cytometry protocol used). […]

Another assay has as its system Panc-2H4. Kind of assay: Human Panc-2H4 insulin suppression assay. It counts as cell-based. The following applies: Homo sapiens. An excerpt: (§1) Two different assays for "classical" sstr2 functions were adopted: (1) cultured foetal rat pituitary cells secreted growth hormone which is inhibited by sstr2 agonists in a dose-dependent fashion and (2) selected glucose-sensitive sub-clones of the human Panc-1 cell line secrete insulin which is inhibited by sstr2 agonists in a dose-dependent fashion.
Glucose-sensitive sub-clones of the human Panc-1, a cell line derived from a pleiomorphic epithelioid carcinoma of the exocrine pancreas, were obtained essentially as described by Hamil et al. (2008) Biomed. Sci. Instrum. 44:441-6. Briefly, Panc-1 cells were subcultured in 24 well plates, and the medium was supplemented with an additional 5% glucose. […] The resulting sub-lines were then tested for glucose sensitivity by preparing wells of a 96-well plate (5 x 10^4 cells per well) which were then exposed to cultured medium containing a range of glucose concentrations (low glucose DMEM, DMEM, DMEM + 1% glucose, DMEM ± 2.5% glucose and DMEM + 5% glucose). After 24hrs incubation, the conditioned medium was collected and assayed for insulin secretion by ELISA (Linco; cat# EZHI-14K) in accordance with the manufacturer's instructions. […] Further 96 well plates were prepared using Panc-2H4 (5 x 10^4 cells per well) in DMEM. After 24hrs, the medium was switched to DMEM + 5% glucose containing various test agents at various concentrations (triplicate wells per condition). After a further 24hrs, the conditioned medium was harvested and the concentration of insulin was determined by ELISA as described above.
(§2) Results were reported as the mean ± SD, expressed as the fold change from cells in the presence of vehicle only.

Assay [1] deals with rat peripheral blood leukocytes. Kind of assay: Rat chemokine-induced PBMC migration assay. The following applies: for EC50 / Emax: Rattus norvegicus, Leukocyte, Table 3; for EC50: read-out: Rat chemokine-induced PBMC migration assay ED50; for Emax: read-out: Rat chemokine-induced PBMC migration assay Max effect (%); for "Classical" : "BSCI" potency ratio Rat: Table 3, rat PBMC migration ED50 versus rat pituicyte GH suppression ED50. It counts as cell-based.

The next assay has as its target sstr2 (Homo sapiens, UniProt P30874). Nature of the assay: [3H]-BN83250 equilibrium binding to THP-1 cells.
The next assay has as its system fetal rat pituicytes. Kind of assay: Rat pituicyte GH suppression assay. The following applies: Rattus norvegicus; for Emax: Table 3, percentage suppression compared to vehicle, read-out: Rat pituicyte GH suppression assay Max effect (%); for EC50: Table 3, read-out: Rat pituicyte GH suppression assay ED50. It counts as cell-based.
Description: as §1
Methods: Cultures of fetal rat pituicytes were established exactly as previously described (Murray et al. (2004) J. Clin. Endocrinol. Metab. 89:3027-32) by enzymatic dispersion. After 48hrs in low glucose DMEM plus 10% FCS, cells in 48 well plates (5 x 10^4 cells per well) were washed for 4hrs in serum-free DMEM and then incubated with test agents at various concentrations for a further 24hrs in serum-free DMEM. At the end of this period, the conditioned medium was harvested, any cell debris removed by centrifugation and assayed for GH using a commercially available ELISA (Linco; cat# EZRMGH-45K) in accordance with the manufacturer's instructions.
as §2

Where [2] appears, read: Table 3, percentage suppression compared to vehicle, read-out: Human Panc-2H4 insulin suppression assay Max effect (%).

Chain of sstr2 (P30874 whole entry): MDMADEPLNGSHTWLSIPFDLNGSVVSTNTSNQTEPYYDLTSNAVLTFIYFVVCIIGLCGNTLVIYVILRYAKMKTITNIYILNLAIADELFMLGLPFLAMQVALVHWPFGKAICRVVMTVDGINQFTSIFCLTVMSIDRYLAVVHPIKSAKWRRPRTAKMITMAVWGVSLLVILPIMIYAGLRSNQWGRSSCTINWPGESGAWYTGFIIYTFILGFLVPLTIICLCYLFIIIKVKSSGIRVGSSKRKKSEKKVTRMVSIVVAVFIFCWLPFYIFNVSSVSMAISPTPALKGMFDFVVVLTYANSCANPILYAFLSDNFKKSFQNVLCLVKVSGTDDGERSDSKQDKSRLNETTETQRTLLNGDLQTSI

Broadly, the Kd is a measure of binding affinity in units of concentration. As to `CCCCCCCCCCC(C)(C)C(=O)N[C@H]1CCCCNC1=O` [BN83250, (S)-3-(2',2'-dimethyldodecanoyl)amino-caprolactam], the “inhibition of SDF-1α induced migration of Jurkat-D3B (in words)” value in the assay on Jurkat-D3B cells is recorded as “inhibits SDF-1α induced migration”. In addition, the EC50 is about 10 nM with Jurkat-D3B cells (Homo sapiens, 100ng/ml SDF-1α, Jurkat-D3B, read-out: ED50 (the source's name)); 1000 nM in the assay on Panc-2H4 (Table 3, read-out: Human Panc-2H4 insulin suppression assay ED50); 1000 nM in the assay on Panc-2H4 (Table 5, library screening hits, read-out: Panc-2H4 insulin suppression assay ("classical" target) ED50); 0.28 nM in assay [1]; 320 nM with fetal rat pituicytes. In the assay on Jurkat-D3B cells (Jurkat-D3B versus parental Jurkat T cells), the “increase in BSCI sensitivity from ectopic expression of sstr2” value is on record as “more than 100 fold”. Further, the Emax in the assay with Panc-2H4 (setting [2]) was 28%; in the assay with Panc-2H4 (Table 5, read-out: Panc-2H4 insulin suppression assay ("classical" target) Max Effect (%)) it was 28%; in assay [1], 100%; with fetal rat pituicytes, 63%. The “"Classical" : "BSCI" potency ratio Rat” value in assay [1] came out at 0.0009. The same compound returned a Kd on sstr2 of about 80 nM.
On to `CC(C)(C)C(=O)N[C@H]1CCCNC1=O` [Valerolactam, (S)-3-(2'2'-dimethylpropionoylamino)-tetrahydropyridin-2-one], for which the “inhibition of SDF-1α induced migration of Jurkat-D3B (in words)” value with Jurkat-D3B cells was “sensitive to inhibition”. In addition, the Emax with Panc-2H4 (setting [2]) was under 10%; in assay [1], 100%; in the assay with fetal rat pituicytes it was 61%. Also, the EC50 is 0.07 nM in assay [1]; about 0.05 nM on sstr2 (read-out: ED50 for competition with [3H]-BN83250 binding at sstr2, 10nM [3H]-BN83250); 80 nM with fetal rat pituicytes. The “"Classical" : "BSCI" potency ratio Rat” value in assay [1] stood at 0.0009. In addition, the “inhibition of BN83250 binding” value at sstr2 (1nM and above) was 80-90%. Further, on sstr2 (competition with [3H]-BN83250), the “Hill Slope” value was “approximately -1.0”.
